Consider 1 compound from paper PMC12406256, “Food Additives Inhibit Intestinal Drug Transporters but Have Limited Effect on In Vitro Drug Permeability” (Molecular Pharmaceutics, 2025).

As a reminder, the IC50 is the concentration that inhibits the measured activity by half. As usually defined, the inhibition is the change of the read-out against control, counted positive when it falls.

Data set [1] deals with T1, MRP2 (Homo sapiens, UniProt Q92887).
T1 construct: made in house; host or cells: Spodoptera frugiperda Sf9 cells, crude membrane vesicles
T1 sequence (Q92887 whole entry): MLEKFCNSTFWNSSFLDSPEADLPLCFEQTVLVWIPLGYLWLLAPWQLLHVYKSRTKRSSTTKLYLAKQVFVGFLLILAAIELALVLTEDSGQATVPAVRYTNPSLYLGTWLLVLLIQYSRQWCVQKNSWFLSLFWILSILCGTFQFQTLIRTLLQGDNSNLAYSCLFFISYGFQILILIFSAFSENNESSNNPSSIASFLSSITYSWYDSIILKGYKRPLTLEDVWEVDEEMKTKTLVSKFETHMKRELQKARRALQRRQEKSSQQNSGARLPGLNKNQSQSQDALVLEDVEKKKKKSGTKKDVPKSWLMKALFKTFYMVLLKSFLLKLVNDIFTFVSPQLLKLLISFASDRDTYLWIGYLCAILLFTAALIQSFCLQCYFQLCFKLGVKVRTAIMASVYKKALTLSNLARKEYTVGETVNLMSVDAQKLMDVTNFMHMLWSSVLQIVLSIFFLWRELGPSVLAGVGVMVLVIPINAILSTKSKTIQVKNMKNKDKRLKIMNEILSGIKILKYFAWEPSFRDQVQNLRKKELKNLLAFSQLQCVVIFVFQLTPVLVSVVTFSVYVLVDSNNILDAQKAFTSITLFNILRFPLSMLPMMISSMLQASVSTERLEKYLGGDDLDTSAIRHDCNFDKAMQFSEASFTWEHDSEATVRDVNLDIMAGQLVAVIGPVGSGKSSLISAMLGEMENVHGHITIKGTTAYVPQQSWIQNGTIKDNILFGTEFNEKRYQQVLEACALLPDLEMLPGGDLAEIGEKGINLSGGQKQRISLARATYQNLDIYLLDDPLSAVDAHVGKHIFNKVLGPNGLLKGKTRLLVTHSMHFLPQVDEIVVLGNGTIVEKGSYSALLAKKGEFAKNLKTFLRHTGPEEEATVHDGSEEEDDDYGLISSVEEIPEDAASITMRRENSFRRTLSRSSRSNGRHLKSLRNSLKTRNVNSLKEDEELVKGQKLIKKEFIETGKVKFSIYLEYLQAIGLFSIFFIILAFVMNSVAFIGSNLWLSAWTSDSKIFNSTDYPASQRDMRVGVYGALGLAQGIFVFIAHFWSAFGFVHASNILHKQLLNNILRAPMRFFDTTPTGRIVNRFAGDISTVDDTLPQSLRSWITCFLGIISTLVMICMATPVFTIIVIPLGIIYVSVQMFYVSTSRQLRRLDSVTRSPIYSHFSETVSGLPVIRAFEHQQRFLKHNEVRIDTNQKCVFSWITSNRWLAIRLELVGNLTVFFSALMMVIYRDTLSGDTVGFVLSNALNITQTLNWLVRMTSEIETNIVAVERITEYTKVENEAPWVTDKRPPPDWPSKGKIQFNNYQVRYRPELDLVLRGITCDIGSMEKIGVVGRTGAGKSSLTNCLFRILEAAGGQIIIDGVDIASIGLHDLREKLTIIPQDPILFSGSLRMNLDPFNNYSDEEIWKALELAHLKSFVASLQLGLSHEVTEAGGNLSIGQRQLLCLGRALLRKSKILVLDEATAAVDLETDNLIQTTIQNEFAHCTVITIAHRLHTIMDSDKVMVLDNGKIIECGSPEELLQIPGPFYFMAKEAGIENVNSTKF
Nature of the data set: Vesicular transport assay, MRP2 (CDCF substrate). Format: biochemical. The note with it: food additive 50 μM; CDCF 5 μM; n = 1.

Data set [2] has as its system Caco-2 cells. Nature of the data set: in vitro. As to conditions: Caco-2.
The subject of data set [3] is Caco-2 cells. The arrangement: method as in not given. The note with it: micellar formulation, ref not given; cited from earlier work.
The target in data set [4] is T2, BCRP (Homo sapiens, UniProt Q9UNQ0).
T2 sequence (Q9UNQ0 1-655): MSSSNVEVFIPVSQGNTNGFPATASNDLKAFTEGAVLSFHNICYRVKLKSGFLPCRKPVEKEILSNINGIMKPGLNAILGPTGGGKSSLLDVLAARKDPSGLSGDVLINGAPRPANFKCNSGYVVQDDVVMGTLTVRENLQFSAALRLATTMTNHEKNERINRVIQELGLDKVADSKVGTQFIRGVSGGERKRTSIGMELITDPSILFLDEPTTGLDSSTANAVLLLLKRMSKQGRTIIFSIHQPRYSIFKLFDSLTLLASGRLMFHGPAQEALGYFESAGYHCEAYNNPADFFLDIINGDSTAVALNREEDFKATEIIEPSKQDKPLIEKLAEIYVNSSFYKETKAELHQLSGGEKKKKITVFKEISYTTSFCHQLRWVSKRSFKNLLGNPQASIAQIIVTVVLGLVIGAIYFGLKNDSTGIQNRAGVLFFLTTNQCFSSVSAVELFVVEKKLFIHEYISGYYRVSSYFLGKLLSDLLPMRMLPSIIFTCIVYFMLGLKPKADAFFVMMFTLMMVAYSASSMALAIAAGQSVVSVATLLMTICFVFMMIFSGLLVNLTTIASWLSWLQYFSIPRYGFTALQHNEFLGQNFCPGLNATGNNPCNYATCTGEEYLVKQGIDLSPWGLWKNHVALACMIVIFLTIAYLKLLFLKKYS
The note with it: cited from earlier work.

The target in data set [5] is T3, P-gp (Homo sapiens, UniProt P08183). Nature of the data set: Vesicular transport assay, P-gp (N-methyl-quinidine substrate).
T3 sequence (P08183 whole entry): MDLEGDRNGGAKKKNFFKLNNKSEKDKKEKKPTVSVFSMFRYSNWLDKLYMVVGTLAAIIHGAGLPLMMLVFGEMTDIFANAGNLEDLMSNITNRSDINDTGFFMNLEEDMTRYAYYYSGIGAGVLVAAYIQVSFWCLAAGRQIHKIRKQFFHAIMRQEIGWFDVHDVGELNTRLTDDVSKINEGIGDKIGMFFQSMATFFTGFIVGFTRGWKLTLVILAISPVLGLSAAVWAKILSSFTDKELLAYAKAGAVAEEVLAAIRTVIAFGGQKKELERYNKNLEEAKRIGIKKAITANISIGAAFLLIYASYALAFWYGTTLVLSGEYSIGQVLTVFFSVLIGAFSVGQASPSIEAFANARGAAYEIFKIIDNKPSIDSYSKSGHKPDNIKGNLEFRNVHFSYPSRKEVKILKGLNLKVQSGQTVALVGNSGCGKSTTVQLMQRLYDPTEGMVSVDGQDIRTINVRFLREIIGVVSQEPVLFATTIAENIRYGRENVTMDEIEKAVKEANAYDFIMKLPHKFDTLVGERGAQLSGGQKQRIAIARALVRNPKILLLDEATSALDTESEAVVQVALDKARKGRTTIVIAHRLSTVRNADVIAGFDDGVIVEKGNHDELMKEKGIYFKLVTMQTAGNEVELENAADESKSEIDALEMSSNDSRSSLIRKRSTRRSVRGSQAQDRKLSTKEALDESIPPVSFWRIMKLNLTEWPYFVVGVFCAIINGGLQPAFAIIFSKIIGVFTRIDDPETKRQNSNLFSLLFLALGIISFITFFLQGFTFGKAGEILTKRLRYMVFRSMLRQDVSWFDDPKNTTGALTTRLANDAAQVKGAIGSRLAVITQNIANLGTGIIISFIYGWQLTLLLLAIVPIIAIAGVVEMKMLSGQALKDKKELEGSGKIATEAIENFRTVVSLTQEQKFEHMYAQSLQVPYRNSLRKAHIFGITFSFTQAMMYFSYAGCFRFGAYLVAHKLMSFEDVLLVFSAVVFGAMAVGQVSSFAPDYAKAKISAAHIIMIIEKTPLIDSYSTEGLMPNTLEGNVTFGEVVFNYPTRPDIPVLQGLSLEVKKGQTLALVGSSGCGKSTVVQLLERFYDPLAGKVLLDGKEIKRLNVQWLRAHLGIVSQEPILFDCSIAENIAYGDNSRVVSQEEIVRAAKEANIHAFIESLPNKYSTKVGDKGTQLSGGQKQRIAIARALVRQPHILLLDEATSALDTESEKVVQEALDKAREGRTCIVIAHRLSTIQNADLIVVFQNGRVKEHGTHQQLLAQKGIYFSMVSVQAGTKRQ
Data set [6] concerns the target T2, BCRP. Nature of the data set: Vesicular transport assay, BCRP (Lucifer yellow substrate). Format: biochemical. Also on record: made in house; host or cells: Spodoptera frugiperda Sf9 cells, crude membrane vesicles.
The target of data set [7] is T3, P-gp. The arrangement: made in house; host or cells: Spodoptera frugiperda Sf9 cells, crude membrane vesicles. The note with it: Caco-2 cells; ref previous studies; cited from earlier work.

A value given as a limit tells only on which side of the number the result lay.

As to `CC1=C(/C=C/C(C)=C/C=C/C(C)=C/C=C/C=C(C)/C=C/C=C(C)/C=C/C2=C(C)CCCC2(C)C)C(C)(C)CCC1` [beta-carotene], the “inhibition of MRP2 substrate accumulation” value in data set [1] is recorded as “did not inhibit”. The “effect on sulfasalazine permeability (P app)” value in data set [2] is on record as “None of the selected food additives showed any effect”. Besides, the “applied dose recovered in the basolateral chamber” value in data set [3] is at most 35%. In addition, in data set [4], the BCRP inhibition potency result is listed as “weak inhibition potency”. The half-maximal inhibitory concentration (IC50) was 3.2 µM in data set [5] and 12.1 µM in data set [6] (Lucifer yellow 50 μM, membrane vesicles, n = 3, read-out: IC50 (95% CI), BCRP). The inhibition at 50 μM is at least 50% in data set [5] (Sf9-derived crude membrane vesicles expressing P-gp, pH 7, probe N-methyl-quinidine 2 μM) and at least 50% in data set [6] (Sf9-derived crude membrane vesicles expressing BCRP, pH 7, probe Lucifer yellow 50 μM, food additive 50 μM, n = 1, read-out: inhibition of BCRP substrate accumulation). The “P-gp inhibition in Caco-2 cells” value in data set [7] is given as “inhibitor of P-gp”.
